According to patent publication US11713309B2, “Solid forms of Cerdulatinib” (Alexion Pharmaceuticals, Inc., priority 2018, dated 2023):
Counter-ions that a name gives are not always drawn.

Legend:
Format in all cases: physicochemical
[1] = Kinetic solubility in SGF; conditions: listed as HC1 salt Form I
Experimental: (§1) Kinetic solubility testing was conducted as follows: About 40-55 mg material was weighed into a 5-mL EP pipe. 4 mL of water/bio-relevant media (SGF, FaSSIF, or FeSSIF) was added into the corresponding sample pipe (drug loading: ˜10 mg/mL calculated as freebase). The pipes were capped tightly and the material was verified to be in contact with the media. The sample vials were placed on a roller and start rolling at 37° C. (rate: 25 r/min). Samples were taken at 1, 2, 4, 24 h. For each time point, 1.0 mL of suspension was transferred into a 2-mL centrifuge tube and the samples were centrifuged. The supernatant was filtered via 0.45 μm PTFE membrane and solubility and pH were measured. An XRPD test on residual solids was conducted.

[2] = Polymorphic stability at elevated temperatures
[3] = Approximate kinetic solubility in organic solvents; conditions: kinetic from dmso stock
Description: (§2) A summary of the approximate kinetic solubility of Compound I HCl Form I in organic solvents, simulated biological fluids, and common pharmaceutical co-solvents is provided in Tables 8-10, respectively.

[4] = Low humidity testing
Experimental: Low Humidity testing: Compound I HCl salt Form I was placed under N2 and checked by in situ XRPD at 20 min and 60 minutes. […] HCl salt Form I was placed under N2 bleeding for ˜60 min and TGA and DSC were measured. […] (peak temperature).

[5] = Solid-state storage stability at controlled temperature/RH; conditions: for Form change / HPLC purity on storage: 2 weeks, initial HPLC purity 99.3%
Experimental: Storage at 25° C./60% RH and at 40° C./75% RH: Compound I HCl Form I was stored at 25° C./60% RH and at 40° C./75% RH. Initial HPLC purity was 99.3%.

[6] = Further solubility testing of Compound I HCl Form I in solvents
[7] = Thermodynamic pH-solubility profile; conditions: 7 days of shaking, about 37° C. water bath
Description: A thermodynamic pH-solubility profile of Compound I HCl Form I in various buffer or non-buffer solutions is further provided in FIG. 61. FIG. 61 additionally includes the thermodynamic pH-solubility profile of Compound I free base. It is of note that no data is shown in the profile of Compound I free base below a pH of about 2.0, as Compound I free base converted to Compound I HCl Form I below a pH of about 2.0. Similarly, no data is shown in the profile of Compound I HCl Form I above a pH of about 3.0, as Compound I HCl Form I converted to Compound I free base above a pH of about 3.0.

[8] = Dynamic vapor sorption (DVS) analysis
Description: In view of the DVS analysis, compound I HCl Form I may be characterized as a monohydrate.

[9] = Approximate kinetic solubility in simulated biological fluids; conditions: about 37° C.; for solubility kinetic at 2 h: equilibrated for 2 hrs; for solubility kinetic at 1 day: equilibrated for 1 day
Description: as §2

[10] = Kinetic solubility in water; conditions: 37° C., listed as HC1 salt Form I; for pH of supernatant: water (native pH 7.6); for Kinetic solubility: water
Experimental: as §1

[11] = Storage under vacuum at 40° C. and at 60° C.; conditions: 4 days, initial HPLC purity 99.3%
Experimental: Storage under vacuum at 40° C. and at 60° C.: Compound I HCl Form I was stored under vacuum at 40° C. and at 60° C. Initial HPLC purity was 99.3%.

[12] = Solution stability in buffer solutions; conditions: buffer solutions pH about 1.2 to about 10.0, about 60° C., 2 days
Experimental: The stability of Compound I HCl Form I in buffer solutions over a pH range of about 1.2 to about 10.0 was also evaluated. These solutions were stored at about 60° C., and assayed for pH and % remaining at 2 days.

[13] = DMSO, organic solvent or mixture
[14] = simulated gastric fluid, SGF (pH 1.2)

Solubility (mg/mL) 1 h ([1]; SGF, 37° C., 1 h, drug loading ~10 mg/mL as freebase): 0.041 mg/mL
Solubility (mg/mL) 2 h ([1]; SGF, 37° C., 2 h): 0.039 mg/mL
Solubility (mg/mL) 4 h ([1]; SGF, 37° C., 4 h): 0.036 mg/mL
Solubility (mg/mL) 24 h ([1]; SGF, 37° C., 24 h): 0.035 mg/mL
Final Form ([1]; XRPD of residual solids, SGF, 1 h, 2 h, 4 h, 24 h): HC1 salt Form I
pH 1 h ([1]; supernatant, SGF (native pH 1.8), 1 h): 1.9
pH 2 h ([1]; supernatant, SGF (native pH 1.8), 2 h): 1.9
pH 4 h ([1]; supernatant, SGF (native pH 1.8), 4 h): 2.0
pH 24 h ([1]; supernatant, SGF (native pH 1.8), 24 h): 2.0
Crystalline form after dry-heating (XRPD, DSC, proton NMR) ([2]; about 50° C., about 72 hours): did not change the crystalline form
solubility kinetic ([3]; Acetone, MeCN, IPA, EtOAc, THF, Dioxane, DCM, organic solvent or mixture): < 100 µg/mL
solubility kinetic ([3]; DMF, PEG300, organic solvent or mixture): 1000 to 10000 µg/mL
solubility kinetic [3, 13]: 10000 to 33300 µg/mL
solubility kinetic ([3]; Methanol, Ethanol, PG, Safflower Seed Oil, Tween 80, organic solvent or mixture): 100 to 1000 µg/mL
Form under N2 by in situ XRPD ([4]; N2 bleeding for 20 min, 10.2% RH): A new form was observed
Form change on storage (XRPD, TGA and DSC) ([5]; powder, about 6 months, about 40° C./75% RH, open dish): did not exhibit any form change
solubility ([6]; 1,4-dioxane, organic solvent or mixture): < 2100 µg/mL
solubility ([6]; 2-MeTHF, organic solvent or mixture): < 2100 µg/mL
solubility ([6]; ACN, organic solvent or mixture): < 2200 µg/mL
solubility ([6]; ACN/H2O, 4:1 (v/v), organic solvent or mixture): 2900 to 3800 µg/mL
solubility ([6]; Acetone/H2O, 4:1 (v/v), organic solvent or mixture): < 1900 µg/mL
solubility ([6]; CHCl3, organic solvent or mixture): < 2300 µg/mL
solubility ([6]; CPME, organic solvent or mixture): < 2000 µg/mL
solubility ([6]; DCM, organic solvent or mixture): < 2100 µg/mL
solubility [6, 13]: > 36000 µg/mL
solubility ([6]; EtOAc, organic solvent or mixture): < 2000 µg/mL
solubility ([6]; EtOH, organic solvent or mixture): < 2200 µg/mL
solubility ([6]; EtOH/H2O, 4:1 (v/v), organic solvent or mixture): < 2000 µg/mL
solubility ([6]; IPA, organic solvent or mixture): < 1900 µg/mL
solubility ([6]; IPAc, organic solvent or mixture): < 2300 µg/mL
solubility ([6]; MIBK, organic solvent or mixture): < 2300 µg/mL
solubility ([6]; MTBE, organic solvent or mixture): < 2000 µg/mL
solubility ([6]; MeOH, organic solvent or mixture): 1900 to 6300 µg/mL
solubility ([6]; MeOH/DCM, 1:1 (v/v), organic solvent or mixture): 6800 to 12500 µg/mL
solubility ([6]; MeOH/H2O, 4:1 (v/v), organic solvent or mixture): < 2000 µg/mL
solubility ([6]; NMP, organic solvent or mixture): 4000 to 6700 µg/mL
solubility ([6]; THF, organic solvent or mixture): < 1900 µg/mL
solubility ([6]; THF/H2O, 4:1 (v/v), organic solvent or mixture): 2000 to 2500 µg/mL
solubility ([6]; acetone, organic solvent or mixture): < 2200 µg/mL
solubility ([6]; anisole, organic solvent or mixture): < 2300 µg/mL
solubility ([6]; n-heptane, organic solvent or mixture): < 1900 µg/mL
solubility ([6]; toluene, organic solvent or mixture): < 2100 µg/mL
pH range in which Compound I HCl Form I converted to Compound I free base [7]: > 3.0
De-hydration and re-hydration behaviour (DVS) [8]: reversible
RH at which complete moisture re-uptake is observed (DVS) [8]: about 20 % RH
DVS weight ([8]; below about 10% RH): up to 3.5%
solubility kinetic at 2 h ([9]; FaSSIF (pH 6.1)): 3 µg/mL
solubility kinetic at 1 day ([9]; FaSSIF (pH 6.1)): 3 µg/mL
solubility kinetic at 2 h ([9]; FeSSIF (pH 5.0)): 35 µg/mL
solubility kinetic at 1 day ([9]; FeSSIF (pH 5.0)): 39 µg/mL
solubility kinetic at 2 h [9, 14]: 67 µg/mL
solubility kinetic at 1 day [9, 14]: 78 µg/mL
pH of supernatant ([10]; 1 h): 3.1
pH of supernatant ([10]; 2 h): 2.9
pH of supernatant ([10]; 4 h): 3.0
pH of supernatant ([10]; 24 h): 2.9
Kinetic solubility ([10]; 1 h): 220 µg/mL
Kinetic solubility ([10]; 2 h): 250 µg/mL
Kinetic solubility ([10]; 4 h): 180 µg/mL
Kinetic solubility ([10]; 24 h): 180 µg/mL
pH at which most stable in solution (% remaining) [12]: about 4.5
SMILES: CCS(=O)(=O)N1CCN(c2ccc(Nc3ncc(C(N)=O)c(NC4CC4)n3)cc2)CC1 [Compound I HCl Form I, 4-(cyclopropylamino)-2-(4-(4-(ethylsulfonyl)piperazin-1-yl)phenylamino)pyrimidine-5-carboxamide]
Polymorphism after re-hydrating post-TGA material (DSC) ([2]; 3 days at about 60% RH): no gross effect upon the polymorphism, but amorphous content did appear
Crystalline form after heating inside TGA ([2]; up to about 120° C. until approximately 3% weight loss): slight loss of crystallinity, but without a new form appearing
Form after re-exposure to ambient conditions ([4]; after N2 bleeding): converted back to HCl salt Form I quickly
Form change / HPLC purity on storage ([5]; 25° C./60% RH): No form change or decrease in purity by HPLC
Form change / HPLC purity on storage ([5]; 40° C./75% RH): No form change or decrease in purity by HPLC
DVS moisture uptake ([8]; between about 40% and about 90% RH): minimal moisture uptake with no hysteresis
Form change / HPLC purity on storage under vacuum ([11]; 40° C.): No form change or decrease in purity by HPLC
Form change / HPLC purity on storage under vacuum ([11]; 60° C.): No form change or decrease in purity by HPLC
